According to US20160115540A1, “PRODRUGS AND DRUGS” (Biogen MA Inc., priority 2013, published 2016):
Counter-ions that a name gives are not always drawn.

Tested on: lymph node
Experiment: Transcriptional profiling, chronic dosing, EAE mice: lymph node
Type: in vivo
Conditions: for Number of differentially expressed genes identified: Lymph Node: EAE, Chronic Dosing
Excerpt: EAE induction is generally performed by immunization with brain extracts, CNS proteins (such as myelin basic protein), or peptides from such protein emulsified in an adjuvant such as complete Freund's adjuvant, e.g., as described in Linker et al., Brain. 2011 March 134(Pt3): 678-92. […] FIG. 17 depicts exemplary immunophenotyping panels used to analyze various immune cell populations (e.g., T cells, T regulatory cells, NK cells, B cells, myeloid cells). […] The number of independent mice whose tissues were harvested for transcript profiling studies and whose data passed QC is shown in TABLE 15. Animals were exposed to CO2 and whole blood collected via cardiac puncture. Two 100 μl aliquots of whole blood were collected in 1.5 mL microcentrifuge tubes and snap frozen in liquid nitrogen. Peripheral (liver, spleen, kidney and jejunum) and CNS brain (cerebellum, hippocampus, striatum and cortex) tissues were harvested and snap frozen in liquid nitrogen, with special care taken to collect tissues of similar size and from the same location. All samples were stored at -80° C. until RNA extraction was conducted. For RNA preparation, frozen tissues were placed in 2 mL RNAse-free 96-well blocks with 1.5 mL QIAzol Lysis Reagent (QIAgen) and a 3.2 mm stainless steel bead (BioSpec Products, Bartlesville, Okla.). Tissues were disrupted for four cycles of 45 seconds in a Mini-Beadbeater (Biospec Products). RNA was extracted in chloroform and the aqueous phase was mixed with an equal volume of 70% ethanol. Extracted RNA was applied to RNeasy 96 plates and purified by the spin method according to the manufacturer's protocol (RNeasy 96 Universal Tissue Protocol, QIAgen, Hilden Germany). […] Washing and staining of the hybridized arrays were completed as described in the GeneChip Expression analysis technical manual for HT plate arrays using the Genechip® Array Station (Affymetrix, Santa Clara, Calif.) with modifications as described in […] et al. The processed GeneChip® plate arrays were scanned using GeneTitan scanner (Affymetrix, Santa Clara, Calif.). Affymetrix scans were subject to quality control (QC) measures. These tests included a visual inspection of the distribution of raw signal intensities and an assessment of RNA degradation, relative log expression (RLE), and normalized unscaled standard error (NUSE). All sample scans that passed these QC metrics were included in the analysis. All CEL files were subjected to GC-content-based Robust Multi-array Average (GCRMA) normalization (version 2.20.0) (Irizarry R A, et al. Nucleic Acids Res 2003; 31:e15; Li C, et al. Genome Biol 2001; 2:[…]0032). […] Stat Appl Genet Mol Biol 2004; 3:Article3). […] Springer Science+Business Media 2005). Changes in gene expression were studied by applying a linear modeling approach to fit gene expression levels according to the defined groups of samples (e.g. DMF-, MMF-, and Vehicle-treated animals) and Bayesian posterior error analysis as implemented by Smyth (Smyth G K. Stat Appl Genet Mol Biol 2004; 3:Article3). The comparisons considered included: DMF-vs-MMF, DMF-vs-Vehicle, MMF-vs-Vehicle, and Vehicle-vs-Naïve.

[1] = lymph node, 100DMF-vs-90MMF, 7 h
[2] = lymph node, 100DMF-vs-90MMF, 12 h
[3] = lymph node, 100DMF-vs-Veh, 12 h
[4] = lymph node, 100MMF-vs-Veh, 12 h

With `COC(=O)/C=C/C(=O)OC` [DMF, dimethyl fumarate] the “Number of differentially expressed genes identified: Lymph Node” value (“Number of differentially” for short) (100 mpk DMF-vs-90 mpk MMF, 7 h after last dosing) was 2, the “Number of differentially” value (100 mpk DMF-vs-90 mpk MMF, 12 h after last dosing) was 6 and the “Number of differentially” value (100 mpk DMF-vs-Vehicle, 7 h after last dosing) was 14. For the same compound, the “Number of differentially” value (100 mpk DMF-vs-Vehicle, 12 h after last dosing) was 8, the “FC BC005685 (1426188_PM_s_at)” value [1] was −1.54 and the “FC Slc10a6 (1428776_PM_at)” value [1] was −1.52. For the same compound, the “FC 1442025_PM_a_at (no gene symbol)” value [2] was 2.64, the “FC 1442026_PM_at (no gene symbol)” value [2] was 2.92 and the “FC Angptl4 (1417130_PM_s_at)” value [2] was 2.93. The “FC Cpt1a (1460409_PM_at)” value [2] was 1.56, the “FC Klf11 (1437241_PM_at)” value [2] was 1.91 and the “FC Zbtb16 (1419874_PM_x_at)” value [2] was 2.14. For the same compound, the “FC Clec4e (1420330_PM_at)” value (lymph node, 100DMF-vs-Veh, 7 h) was 1.55, the “FC Clec4d (1420804_PM_s_at)” value (lymph node, 100DMF-vs-Veh, 7 h) was 1.85 and the “FC Gdf3 (1449288_PM_at)” value (lymph node, 100DMF-vs-Veh, 7 h) was −1.57. For the same compound, the “FC Mmp12 (1449153_PM_at)” value (lymph node, 100DMF-vs-Veh, 7 h) was 3.33, the “FC Nqo1 (1423627_PM_at)” value (lymph node, 100DMF-vs-Veh, 7 h) was 2.79 and the “FC Osgin1 (1424022_PM_at)” value (lymph node, 100DMF-vs-Veh, 7 h) was 1.54. For the same compound, the “FC Rnf128 (1449036_PM_at)” value (lymph node, 100DMF-vs-Veh, 7 h) was 1.71, the “FC Slc11a1 (1420361_PM_at)” value (lymph node, 100DMF-vs-Veh, 7 h) was 1.57 and the “FC Srxn1 (1419942_PM_at)” value (lymph node, 100DMF-vs-Veh, 7 h) was 1.98. The “FC Srxn1 (1426875_PM_s_at)” value (lymph node, 100DMF-vs-Veh, 7 h) was 1.83, the “FC Tnfaip2 (1416273_PM_at)” value (lymph node, 100DMF-vs-Veh, 7 h) was 1.82 and the “FC Tnfaip2 (1438855_PM_x_at)” value (lymph node, 100DMF-vs-Veh, 7 h) was 1.52. For the same compound, the “FC Ugt1a1 /// Ugt1a10 /// Ugt1a2 /// Ugt1a5 /// Ugt1a6a /// Ugt1a6b /// Ugt1a7c /// Ugt1a9 (1424783_PM_a_at)” value (lymph node, 100DMF-vs-Veh, 7 h) was 1.52, the “FC Ugt1a1 /// Ugt1a10 /// Ugt1a2 /// Ugt1a5 /// Ugt1a6a /// Ugt1a6b /// Ugt1a7c /// Ugt1a9 (1426261_PM_s_at)” value (lymph node, 100DMF-vs-Veh, 7 h) was 1.62 and the “FC 1442025_PM_a_at (no gene symbol)” value [3] was 2.35. The “FC 1442026_PM_at (no gene symbol)” value [3] was 2.48, the “FC Clec4d (1420804_PM_s_at)” value [3] was 2.19 and the “FC Gzmk (1422280_PM_at)” value [3] was 1.92. For the same compound, the “FC Npas2 (1421037_PM_at)” value [3] was 1.53, the “FC Nqo1 (1423627_PM_at)” value [3] was 1.70 and the “FC Ugt1a1 /// Ugt1a10 /// Ugt1a2 /// Ugt1a5 /// Ugt1a6a /// Ugt1a6b /// Ugt1a7c /// Ugt1a9 (1424783_PM_a_at)” value [3] was 1.56. The “FC Zbtb16 (1419874_PM_x_at)” value [3] was 2.07 and the “Zbtb16 transcript signal, DMF-treated compared to MMF-treated animals” value (lymph node, chronically dosed EAE mice, 12 h after final dosing) was “increased signal”.
With `COC(=O)/C=C/C(=O)O` [MMF, monomethyl fumarate] the “Number of differentially” value (90 mpk MMF-vs-Vehicle, 7 h after last dosing) was 21, the “Number of differentially” value (90 mpk MMF-vs-Vehicle, 12 h after last dosing) was 7 and the “FC BC005685 (1426188_PM_s_at)” value (lymph node, 100MMF-vs-Veh, 7 h) was 1.54. For the same compound, the “FC C78662 (1442498_PM_at)” value (lymph node, 100MMF-vs-Veh, 7 h) was 1.68, the “FC Clec4e (1420330_PM_at)” value (lymph node, 100MMF-vs-Veh, 7 h) was 2.02 and the “FC Clec4e (1420331_PM_at)” value (lymph node, 100MMF-vs-Veh, 7 h) was 1.80. For the same compound, the “FC Clec4d (1420804_PM_s_at)” value (lymph node, 100MMF-vs-Veh, 7 h) was 2.40, the “FC Ctgf (1416953_PM_at)” value (lymph node, 100MMF-vs-Veh, 7 h) was 2.34 and the “FC Hs3st1 (1423450_PM_a_at)” value (lymph node, 100MMF-vs-Veh, 7 h) was 1.72. The “FC Il1f9 1425958_PM_at” value (lymph node, 100MMF-vs-Veh, 7 h) was 1.86, the “FC Mmp12 (1449153_PM_at)” value (lymph node, 100MMF-vs-Veh, 7 h) was 5.16 and the “FC Nqo1 (1423627_PM_at)” value (lymph node, 100MMF-vs-Veh, 7 h) was 2.59. For the same compound, the “FC Osgin1 (1424022_PM_at)” value (lymph node, 100MMF-vs-Veh, 7 h) was 1.50, the “FC Pla2g7 (1430700_PM_a_at)” value (lymph node, 100MMF-vs-Veh, 7 h) was 1.67 and the “FC Rnf128 (1449036_PM_at)” value (lymph node, 100MMF-vs-Veh, 7 h) was 1.81. For the same compound, the “FC Slc11a1 (1420361_PM_at)” value (lymph node, 100MMF-vs-Veh, 7 h) was 1.57, the “FC Slc40a1 1448566_PM_at” value (lymph node, 100MMF-vs-Veh, 7 h) was 1.87 and the “FC Slc40a1 (1417061_PM_at)” value (lymph node, 100MMF-vs-Veh, 7 h) was 1.80. For the same compound, the “FC Srxn1 (1419942_PM_at)” value (lymph node, 100MMF-vs-Veh, 7 h) was 1.93, the “FC Srxn1 (1426875_PM_s_at)” value (lymph node, 100MMF-vs-Veh, 7 h) was 1.80 and the “FC Tnfaip2 (1416273_PM_at)” value (lymph node, 100MMF-vs-Veh, 7 h) was 1.86. For the same compound, the “FC Tnfaip2 (1438855_PM_x_at)” value (lymph node, 100MMF-vs-Veh, 7 h) was 1.55, the “FC Ugt1a1 /// Ugt1a10 /// Ugt1a2 /// Ugt1a5 /// Ugt1a6a /// Ugt1a6b /// Ugt1a7c /// Ugt1a9 (1426261_PM_s_at)” value (lymph node, 100MMF-vs-Veh, 7 h) was 1.55 and the “FC Ccl3 (1419561_PM_at)” value [4] was 2.22. The “FC Clec4d (1420804_PM_s_at)” value [4] was 2.43, the “FC Kcne3 (1418499_PM_a_at)” value [4] was 1.56 and the “FC Mmp9 (1416298_PM_at)” value [4] was 1.82. For the same compound, the “FC Mmp12 (1449153_PM_at)” value [4] was 3.95, the “FC Npas2 (1421037_PM_at)” value [4] was 1.56 and the “FC Tnfaip2 (1416273_PM_at)” value [4] was 1.54.
